Test results from EPA's ToxRefDB 2.

Key:
rat [1] = conditions: Sub-acute repeat dose toxicity, sprague dawley, Oral, Gavage/Intubation, dose end: 14 day, group: systemic
primate [2] = conditions: Sub-acute repeat dose toxicity; Oral; Gavage/Intubation; dose end: 21 day; group: systemic; systemic / in life observation / clinical signs / inappetence + systemic / in life observation / clinical signs / abnormal feces + systemic…
rat [3] = conditions: Sub-acute repeat dose toxicity, sprague dawley, Oral, Gavage/Intubation, dose end: 28 day, group: systemic
primate [4] = conditions: Sub-acute repeat dose toxicity; Oral; Gavage/Intubation; dose end: 30 day; group: systemic; systemic / clinical chemistry / protein / protein + systemic / hematology / erythrocyte (rbc) count differential / erythrocyte (rbc) + …
primate [5] = conditions: Sub-acute repeat dose toxicity; Oral; Gavage/Intubation; dose end: 19 day; group: systemic; systemic / clinical chemistry / creatinine / creatinine + systemic / clinical chemistry / urea nitrogen / urea nitrogen + systemic / …
rat [6] = conditions: Sub-acute repeat dose toxicity; sprague dawley; Injection; Intravenous; dose end: 4 day; group: systemic; systemic / in life observation / clinical signs / drooping eyelids (ptosis) + systemic / in life observation / clinical signs / external …
dog [7] = conditions: Sub-acute repeat dose toxicity, beagle, Injection, Intravenous, dose end: 5 day, group: systemic
primate [8] = conditions: Sub-acute repeat dose toxicity; Injection; Intravenous; dose end: 5 day; group: systemic; systemic / in life observation / clinical signs / [other] + systemic / in life observation / clinical signs / compulsive biting or licking…
rat [9] = conditions: Sub-acute repeat dose toxicity; sprague dawley; Injection; Intravenous; dose end: 5 day; group: systemic; systemic / in life observation / clinical signs / drooping eyelids (ptosis) + systemic / in life observation / clinical signs / reduced …
rat [10] = conditions: Fertility (Segment I), sprague dawley, Oral, Gavage/Intubation, dose end: 14 GD
mouse = conditions: Subchronic oral toxicity in rodents, cd1, Gavage/Intubation, dose end: 13 weeks, group: systemic, systemic / in life observation / body weight / body weight + systemic / in life observation / body weight / body weight gain + systemic / in…
dog [11] = conditions: Sub-acute repeat dose toxicity, beagle, Oral, Gavage/Intubation, dose end: 4 week, group: systemic
rat [12] = conditions: Prenatal developmental toxicity study, sprague dawley, Oral, Gavage/Intubation, dose end: 17 GD, group: maternal
rat [13] = conditions: Fertility (Segment I), sprague dawley, Oral, Gavage/Intubation, dose end: 7 GD
rat [14] = conditions: Fertility (Segment I), sprague dawley, Oral, Gavage/Intubation, dose end: 7 GD; remark: listed apart in the source
rabbit = conditions: Prenatal developmental toxicity study, other, Oral, Gavage/Intubation, dose end: 18 GD
rat [15] = conditions: Sub-acute repeat dose toxicity, other, Oral, Gavage/Intubation, dose end: 29 day, group: systemic
dog [16] = conditions: Chronic toxicity, beagle, Oral, Gavage/Intubation, dose end: 6 month, group: systemic
dog [17] = conditions: Chronic toxicity, beagle, Oral, Gavage/Intubation, dose end: 12 month, group: systemic
rat [18] = conditions: Sub-acute repeat dose toxicity, sprague dawley, Oral, Gavage/Intubation, dose end: 1 month, group: systemic
rat [19] = conditions: Chronic toxicity; sprague dawley; Oral; Gavage/Intubation; dose end: 6 month; group: systemic; systemic / clinical chemistry / estradiol / estradiol + systemic / clinical chemistry / prolactin / prolactin + systemic / clinical …
rat [20] = conditions: Prenatal developmental toxicity study, Sprague Dawley OFA, Oral, Gavage/Intubation, dose end: 17 GD, group: maternal
[21] = systemic / clinical chemistry / calcium / calcium + systemic / clinical chemistry / protein / protein + systemic / hematology / erythrocyte…
[22] = systemic / hematology / erythrocyte (rbc) count differential / erythrocyte (rbc) + systemic / hematology / hematocrit (hct) / hematocrit (…
[23] = systemic / pathology gross / full gross necropsy / ulcer
[24] = systemic / pathology gross / full gross necropsy / ulcer + systemic / clinical chemistry / protein / protein + systemic / hematology / …
[25] = systemic / clinical chemistry / bile acids / bile acids
[26] = systemic / clinical chemistry / bile acids / bile acids + systemic / pathology microscopic / gallbladder / hyperplasia + systemic / …
[27] = group: maternal, reproductive / reproductive performance / fertility / fertility
[28] = group: parental, systemic / in life observation / body weight / body weight gain + systemic / in life observation / clinical signs / [other] + systemic / in …
[29] = systemic / in life observation / clinical signs / pulse/pressure + systemic / urinalysis / protein / protein
[30] = systemic / in life observation / clinical signs / pulse/pressure + systemic / urinalysis / protein / protein + systemic / in life …
[31] = systemic / in life observation / body weight / body weight gain + systemic / in life observation / clinical signs / drooping eyelids (ptosis…
[32] = group: maternal, reproductive / reproductive performance / fertility / fertility + reproductive / reproductive performance / implantations / implantations + …
[33] = group: parental, systemic / in life observation / clinical signs / drooping eyelids (ptosis) + systemic / pathology gross / vagina / dilatation
[34] = group: maternal, reproductive / reproductive performance / estrous cycle / abnormal + reproductive / reproductive performance / estrous cycle / length
[35] = group: maternal, reproductive / reproductive performance / estrous cycle / abnormal + reproductive / reproductive performance / estrous cycle / length + …
[36] = group: parental, systemic / in life observation / body weight / body weight gain + systemic / in life observation / clinical signs / drooping eyelids (ptosis…
[37] = group: developmental, systemic / in life observation / body weight / fetal weight
[38] = group: maternal, systemic / in life observation / body weight / body weight gain + systemic / in life observation / food consumption / food consumption + …
[39] = systemic / hematology / platelet / platelet + systemic / in life observation / body weight / body weight + systemic / in life observation / …
[40] = systemic / in life observation / clinical signs / drooping eyelids (ptosis) + systemic / in life observation / clinical signs / lacrimation …
[41] = systemic / clinical chemistry / albumin / albumin + systemic / clinical chemistry / albumin-globulin ratio / albumin-globulin ratio + …
[42] = systemic / in life observation / clinical signs / [other] + systemic / in life observation / clinical signs / defecation (diarrhea) + …
[43] = systemic / clinical chemistry / bilirubin / total bilirubin + systemic / hematology / platelet / platelet + systemic / in life observation…
[44] = systemic / clinical chemistry / bilirubin / total bilirubin + systemic / in life observation / clinical signs / [other] + systemic / in life…
[45] = systemic / clinical chemistry / triglycerides / triglycerides + systemic / in life observation / body weight / body weight gain + systemic…
[46] = systemic / pathology gross / vagina / dilatation + systemic / pathology gross / skin / [other]
[47] = systemic / in life observation / body weight / body weight + systemic / in life observation / clinical signs / drooping eyelids (ptosis)
[48] = systemic / in life observation / clinical signs / drooping eyelids (ptosis)

## NC(=O)n1c(O)c(C(=O)c2cc(Cl)cs2)c2cc(Cl)ccc21
Rat [1]; [21]
  LOAEL: > 100 mg/kg/day
  NOAEL: ≥ 100 mg/kg/day
Rat [1]; [22]
  LEL: 3 mg/kg/day
  NEL: < 3 mg/kg/day
Primate [2]
  LEL: 3 mg/kg/day
  LOAEL: > 3 mg/kg/day
  NEL: < 3 mg/kg/day
  NOAEL: ≥ 3 mg/kg/day
Rat [3]; [23]
  LEL: 2 mg/kg/day
  NEL: < 2 mg/kg/day
Rat [3]; [24]
  LOAEL: > 8 mg/kg/day
  NOAEL: ≥ 8 mg/kg/day
Primate [4]
  LEL: 2 mg/kg/day
  LOAEL: > 6 mg/kg/day
  NEL: < 2 mg/kg/day
  NOAEL: ≥ 6 mg/kg/day
Primate [5]
  LEL: 8 mg/kg/day
  LOAEL: > 8 mg/kg/day
  NEL: < 8 mg/kg/day
  NOAEL: ≥ 8 mg/kg/day

## CNC(=O)[C@H]1O[C@@H](n2cnc3c(NCc4cc(Cl)ccc4OCc4cc(C)no4)ncnc32)[C@H](O)[C@@H]1N
Rat [6]
  LEL: 5 mg/kg/day
  LOAEL: > 5 mg/kg/day
  NEL: < 5 mg/kg/day
  NOAEL: ≥ 5 mg/kg/day
Dog [7]; [25]
  LEL: 3 mg/kg/day
  NEL: < 3 mg/kg/day
Dog [7]; [26]
  LOAEL: > 30 mg/kg/day
  NOAEL: ≥ 30 mg/kg/day
Primate [8]
  LEL: 40 mg/kg/day
  LOAEL: > 40 mg/kg/day
  NEL: 15 mg/kg/day
  NOAEL: ≥ 40 mg/kg/day
Rat [9]
  LEL: 5 mg/kg/day
  LOAEL: > 150 mg/kg/day
  NEL: < 5 mg/kg/day
  NOAEL: ≥ 150 mg/kg/day

## NC(=O)Cn1c(=O)cc(CCN2CCN(c3nccc4sccc34)CC2)c2ccc(F)cc21 [Trelanserin]
Rat [10]; [27]
  LEL: 150 mg/kg/day
  LOAEL: > 150 mg/kg/day
  NEL: 20 mg/kg/day
  NOAEL: ≥ 150 mg/kg/day
Rat [10]; [28]
  LOAEL: > 150 mg/kg/day
  NEL: 4 mg/kg/day
  NOAEL: ≥ 150 mg/kg/day
Rat [10]; group: parental, systemic / in life observation / clinical signs / [other] + systemic / in life observation / clinical signs / drooping eyelids (ptosis) + …
  LEL: 20 mg/kg/day
mouse
  LEL: 62.5 mg/kg/day
  LOAEL: 250 mg/kg/day
  NEL: < 62.5 mg/kg/day
  NOAEL: 125 mg/kg/day
Dog [11]; [29]
  LEL: 1 mg/kg/day
  NEL: < 1 mg/kg/day
Dog [11]; [30]
  LOAEL: > 16 mg/kg/day
  NOAEL: ≥ 16 mg/kg/day
Rat [12]; [31]
  LOAEL: > 20 mg/kg/day
  NEL: 1 mg/kg/day
  NOAEL: ≥ 20 mg/kg/day
Rat [12]; systemic / in life observation / clinical signs / drooping eyelids (ptosis) + systemic / in life observation / clinical signs / red or …
  LEL: 5 mg/kg/day
Rat [13]; [32]
  LEL: 80 mg/kg/day
  LOAEL: > 80 mg/kg/day
  NEL: < 80 mg/kg/day
  NOAEL: ≥ 80 mg/kg/day
Rat [13]; [33]
  LEL: 80 mg/kg/day
  LOAEL: > 80 mg/kg/day
  NEL: < 80 mg/kg/day
  NOAEL: ≥ 80 mg/kg/day
Rat [14]; [34]
  LEL: 4 mg/kg/day
  NEL: < 4 mg/kg/day
Rat [14]; [35]
  LOAEL: > 20 mg/kg/day
  NOAEL: ≥ 20 mg/kg/day
Rat [14]; [36]
  LEL: 10 mg/kg/day
  LOAEL: > 20 mg/kg/day
  NEL: 4 mg/kg/day
  NOAEL: ≥ 20 mg/kg/day
rabbit; [37]
  LEL: 10 mg/kg/day
  LOAEL: > 30 mg/kg/day
  NEL: 5 mg/kg/day
  NOAEL: ≥ 30 mg/kg/day
rabbit; group: maternal, reproductive / reproductive performance / postimplantation loss / postimplantation loss
  LEL: 5 mg/kg/day
rabbit; group: maternal, reproductive / reproductive performance / postimplantation loss / postimplantation loss + systemic / in life observation / body weight / …
  NEL: 2 mg/kg/day
rabbit; [38]
  LOAEL: > 30 mg/kg/day
  NOAEL: ≥ 30 mg/kg/day
Rat [15]; [39]
  LOAEL: > 100 mg/kg/day
  NOAEL: ≥ 100 mg/kg/day
Rat [15]; [40]
  LEL: 4 mg/kg/day
  NEL: < 4 mg/kg/day
Dog [16]; [41]
  LOAEL: > 100 mg/kg/day
  NOAEL: ≥ 100 mg/kg/day
Dog [16]; [42]
  LEL: 4 mg/kg/day
  NEL: < 4 mg/kg/day
Dog [17]; [43]
  LOAEL: > 80 mg/kg/day
  NOAEL: ≥ 80 mg/kg/day
Dog [17]; [44]
  LEL: 2 mg/kg/day
  NEL: < 2 mg/kg/day
Rat [18]; [45]
  LOAEL: 20 mg/kg/day
  NOAEL: 2 mg/kg/day
Rat [18]; [46]
  LEL: 2 mg/kg/day
  NEL: < 2 mg/kg/day
Rat [19]
  LEL: 4 mg/kg/day
  LOAEL: 20 mg/kg/day
  NEL: < 4 mg/kg/day
  NOAEL: 4 mg/kg/day
Rat [20]; [47]
  LOAEL: > 20 mg/kg/day
  NOAEL: ≥ 20 mg/kg/day
Rat [20]; [48]
  LEL: 5 mg/kg/day
  NEL: < 5 mg/kg/day
